{"source": "the supplement of paper PMC10307832", "experiment_in_all_cases": "relative viability (nuclei count vs DMSO), 5 days (fraction); higher = more cells survive", "key": {"[1]": {"test_system": "201T", "in_short": "(§1)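 Relative viability is defined as nuclei in treated wells over nuclei in vehicle wells. Duplicate plates were run and medians reported. Lung cancer cell lines in 1536-well plates were dosed by pin tool one day after seeding, with one drug or with a fixed anchor-drug dose plus five library-drug doses (not always all listed) in √10 steps, and nuclei were counted after 5 days.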"}, "[2]": {"test_system": "BEN", "in_short": "as §1"}, "[3]": {"test_system": "COR-L 105", "in_short": "as §1"}, "[4]": {"test_system": "EKVX", "in_short": "as §1"}, "[5]": {"test_system": "EPLC-272H", "in_short": "as §1"}, "[6]": {"test_system": "H3255", "in_short": "as §1"}, "[7]": {"test_system": "HCC-44", "in_short": "as §1"}, "[8]": {"test_system": "HCC-827", "in_short": "as §1"}, "[9]": {"test_system": "HOP-62", "in_short": "as §1"}, "[10]": {"test_system": "LCLC-97TM1", "in_short": "as §1"}, "[11]": {"test_system": "LOU-NH91", "in_short": "as §1"}, "[12]": {"test_system": "LU99A", "in_short": "as §1"}, "[13]": {"test_system": "NCI-H1395", "in_short": "as §1"}, "[14]": {"test_system": "NCI-H1437", "in_short": "as §1"}, "[15]": {"test_system": "NCI-H1666", "in_short": "as §1"}, "[16]": {"test_system": "NCI-H1975", "in_short": "as §1"}, "[17]": {"test_system": "NCI-H2085", "in_short": "as §1"}, "[18]": {"test_system": "NCI-H2087", "in_short": "as §1"}, "[19]": {"test_system": "NCI-H2126", "in_short": "as §1"}, "[20]": {"test_system": "NCI-H2342", "in_short": "as §1"}, "[21]": {"test_system": "NCI-H358", "in_short": "as §1"}, "[22]": {"test_system": "NCI-H647", "in_short": "as §1"}, "[23]": {"test_system": "PC-3 [JPC-3]", "in_short": "as §1"}, "[24]": {"test_system": "SW 1573", "in_short": "as §1"}}}
{"molecule": "C[C@@H]1CN(CC(=O)Nc2ccc3c(c2)Cc2cccc(-c4cc(=O)cc(N5CCOCC5)o4)c2S3)C[C@H](C)O1", "note": "+ CC(=O)c1c(C)c2cnc(Nc3ccc(N4CCNCC4)cn3)nc2n(C2CCCC2)c1=O [Palbociclib] (partner 0.5 µM)", "values": [{"measurement": "relative viability", "setting": "[1]; first compound 0.04 µM", "value": 0.345}, {"measurement": "relative viability", "setting": "[1]; first compound 0.1265 µM", "value": 0.35}, {"measurement": "relative viability", "setting": "[1]; first compound 0.4 µM", "value": 0.361}, {"measurement": "relative viability", "setting": "[1]; first compound 4 µM", "value": 0.336}, {"measurement": "relative viability", "setting": "[2]; first compound 0.04 µM", "value": 0.513}, {"measurement": "relative viability", "setting": "[2]; first compound 0.1265 µM", "value": 0.471}, {"measurement": "relative viability", "setting": "[2]; first compound 0.4 µM", "value": 0.481}, {"measurement": "relative viability", "setting": "[2]; first compound 4 µM", "value": 0.452}, {"measurement": "relative viability", "setting": "[3]; first compound 0.04 µM", "value": 0.391}, {"measurement": "relative viability", "setting": "[3]; first compound 0.1265 µM", "value": 0.424}, {"measurement": "relative viability", "setting": "[3]; first compound 0.4 µM", "value": 0.397}, {"measurement": "relative viability", "setting": "[3]; first compound 4 µM", "value": 0.328}, {"measurement": "relative viability", "setting": "[4]; first compound 0.04 µM", "value": 0.342}, {"measurement": "relative viability", "setting": "[4]; first compound 0.1265 µM", "value": 0.396}, {"measurement": "relative viability", "setting": "[4]; first compound 0.4 µM", "value": 0.308}, {"measurement": "relative viability", "setting": "[4]; first compound 4 µM", "value": 0.288}, {"measurement": "relative viability", "setting": "[5]; first compound 0.04 µM", "value": 0.38}, {"measurement": "relative viability", "setting": "[5]; first compound 0.1265 µM", "value": 0.388}, {"measurement": "relative viability", "setting": "[5]; first compound 0.4 µM", "value": 0.331}, {"measurement": "relative viability", "setting": "[5]; first compound 4 µM", "value": 0.321}, {"measurement": "relative viability", "setting": "[6]; first compound 0.04 µM", "value": 0.276}, {"measurement": "relative viability", "setting": "[6]; first compound 0.1265 µM", "value": 0.345}, {"measurement": "relative viability", "setting": "[6]; first compound 0.4 µM", "value": 0.268}, {"measurement": "relative viability", "setting": "[6]; first compound 4 µM", "value": 0.305}, {"measurement": "relative viability", "setting": "[7]; first compound 0.04 µM", "value": 0.917}, {"measurement": "relative viability", "setting": "[7]; first compound 0.1265 µM", "value": 0.965}, {"measurement": "relative viability", "setting": "[7]; first compound 0.4 µM", "value": 0.929}, {"measurement": "relative viability", "setting": "[7]; first compound 4 µM", "value": 0.919}, {"measurement": "relative viability", "setting": "[8]; first compound 0.04 µM", "value": 0.502}, {"measurement": "relative viability", "setting": "[8]; first compound 0.1265 µM", "value": 0.49}, {"measurement": "relative viability", "setting": "[8]; first compound 0.4 µM", "value": 0.433}, {"measurement": "relative viability", "setting": "[8]; first compound 4 µM", "value": 0.442}, {"measurement": "relative viability", "setting": "[9]; first compound 0.04 µM", "value": 0.398}, {"measurement": "relative viability", "setting": "[9]; first compound 0.1265 µM", "value": 0.43}, {"measurement": "relative viability", "setting": "[9]; first compound 0.4 µM", "value": 0.412}, {"measurement": "relative viability", "setting": "[9]; first compound 4 µM", "value": 0.405}, {"measurement": "relative viability", "setting": "[10]; first compound 0.1265 µM", "value": 0.25}, {"measurement": "relative viability", "setting": "[10]; first compound 0.4 µM", "value": 0.206}, {"measurement": "relative viability", "setting": "[10]; first compound 4 µM", "value": 0.246}, {"measurement": "relative viability", "setting": "[11]; first compound 0.04 µM", "value": 0.536}, {"measurement": "relative viability", "setting": "[11]; first compound 0.1265 µM", "value": 0.481}, {"measurement": "relative viability", "setting": "[11]; first compound 0.4 µM", "value": 0.55}, {"measurement": "relative viability", "setting": "[11]; first compound 4 µM", "value": 0.509}, {"measurement": "relative viability", "setting": "[12]; first compound 0.04 µM", "value": 0.387}, {"measurement": "relative viability", "setting": "[12]; first compound 0.1265 µM", "value": 0.404}, {"measurement": "relative viability", "setting": "[12]; first compound 0.4 µM", "value": 0.449}, {"measurement": "relative viability", "setting": "[12]; first compound 4 µM", "value": 0.445}, {"measurement": "relative viability", "setting": "[13]; first compound 0.1265 µM", "value": 0.626}, {"measurement": "relative viability", "setting": "[13]; first compound 0.4 µM", "value": 0.575}, {"measurement": "relative viability", "setting": "[13]; first compound 4 µM", "value": 0.595}, {"measurement": "relative viability", "setting": "[14]; first compound 0.04 µM", "value": 0.309}, {"measurement": "relative viability", "setting": "[14]; first compound 0.1265 µM", "value": 0.282}, {"measurement": "relative viability", "setting": "[14]; first compound 0.4 µM", "value": 0.327}, {"measurement": "relative viability", "setting": "[14]; first compound 4 µM", "value": 0.255}, {"measurement": "relative viability", "setting": "[15]; first compound 0.04 µM", "value": 0.584}, {"measurement": "relative viability", "setting": "[15]; first compound 0.1265 µM", "value": 0.616}, {"measurement": "relative viability", "setting": "[15]; first compound 0.4 µM", "value": 0.611}, {"measurement": "relative viability", "setting": "[15]; first compound 4 µM", "value": 0.662}, {"measurement": "relative viability", "setting": "[16]; first compound 0.04 µM", "value": 0.578}, {"measurement": "relative viability", "setting": "[16]; first compound 0.1265 µM", "value": 0.58}, {"measurement": "relative viability", "setting": "[16]; first compound 0.4 µM", "value": 0.395}, {"measurement": "relative viability", "setting": "[16]; first compound 4 µM", "value": 0.487}, {"measurement": "relative viability", "setting": "[17]; first compound 0.04 µM", "value": 0.476}, {"measurement": "relative viability", "setting": "[17]; first compound 0.1265 µM", "value": 0.436}, {"measurement": "relative viability", "setting": "[17]; first compound 0.4 µM", "value": 0.498}, {"measurement": "relative viability", "setting": "[17]; first compound 4 µM", "value": 0.419}, {"measurement": "relative viability", "setting": "[18]; first compound 0.04 µM", "value": 0.213}, {"measurement": "relative viability", "setting": "[18]; first compound 0.1265 µM", "value": 0.253}, {"measurement": "relative viability", "setting": "[18]; first compound 0.4 µM", "value": 0.244}, {"measurement": "relative viability", "setting": "[18]; first compound 4 µM", "value": 0.267}, {"measurement": "relative viability", "setting": "[19]; first compound 0.04 µM", "value": 0.384}, {"measurement": "relative viability", "setting": "[19]; first compound 0.1265 µM", "value": 0.343}, {"measurement": "relative viability", "setting": "[19]; first compound 0.4 µM", "value": 0.348}, {"measurement": "relative viability", "setting": "[19]; first compound 4 µM", "value": 0.334}, {"measurement": "relative viability", "setting": "[20]; first compound 0.04 µM", "value": 0.525}, {"measurement": "relative viability", "setting": "[20]; first compound 0.1265 µM", "value": 0.556}, {"measurement": "relative viability", "setting": "[20]; first compound 0.4 µM", "value": 0.496}, {"measurement": "relative viability", "setting": "[20]; first compound 4 µM", "value": 0.455}, {"measurement": "relative viability", "setting": "[21]; first compound 0.04 µM", "value": 0.123}, {"measurement": "relative viability", "setting": "[21]; first compound 0.1265 µM", "value": 0.132}, {"measurement": "relative viability", "setting": "[21]; first compound 0.4 µM", "value": 0.12}, {"measurement": "relative viability", "setting": "[21]; first compound 4 µM", "value": 0.127}, {"measurement": "relative viability", "setting": "[22]; first compound 0.04 µM", "value": 0.376}, {"measurement": "relative viability", "setting": "[22]; first compound 0.1265 µM", "value": 0.336}, {"measurement": "relative viability", "setting": "[22]; first compound 0.4 µM", "value": 0.444}, {"measurement": "relative viability", "setting": "[22]; first compound 4 µM", "value": 0.273}, {"measurement": "relative viability", "setting": "[23]; first compound 0.04 µM", "value": 0.501}, {"measurement": "relative viability", "setting": "[23]; first compound 0.1265 µM", "value": 0.515}, {"measurement": "relative viability", "setting": "[23]; first compound 0.4 µM", "value": 0.535}, {"measurement": "relative viability", "setting": "[23]; first compound 4 µM", "value": 0.477}, {"measurement": "relative viability", "setting": "[24]; first compound 0.04 µM", "value": 0.501}, {"measurement": "relative viability", "setting": "[24]; first compound 0.1265 µM", "value": 0.337}, {"measurement": "relative viability", "setting": "[24]; first compound 0.4 µM", "value": 0.393}, {"measurement": "relative viability", "setting": "[24]; first compound 4 µM", "value": 0.264}]}
